Test results as given in patent US20260258000A1, “THYMIDYLATE SYNTHASE INHIBITORS AND USES THEREOF” (University of Florida Research Foundation, Incorporated, priority 2021, published 2026).
Entries after “also recorded” stand apart in the source; their conditions may differ.

Assays:
[1] = target: T1, human thymidylate synthase (hTS) (Homo sapiens, UniProt P04818); assay: Tritium based TS catalytic activity assay; format: biochemical
T1 construct: 6xHis (N); made in house; host or cells: E. coli BL21 (DE3)
T1 sequence (P04818 whole entry): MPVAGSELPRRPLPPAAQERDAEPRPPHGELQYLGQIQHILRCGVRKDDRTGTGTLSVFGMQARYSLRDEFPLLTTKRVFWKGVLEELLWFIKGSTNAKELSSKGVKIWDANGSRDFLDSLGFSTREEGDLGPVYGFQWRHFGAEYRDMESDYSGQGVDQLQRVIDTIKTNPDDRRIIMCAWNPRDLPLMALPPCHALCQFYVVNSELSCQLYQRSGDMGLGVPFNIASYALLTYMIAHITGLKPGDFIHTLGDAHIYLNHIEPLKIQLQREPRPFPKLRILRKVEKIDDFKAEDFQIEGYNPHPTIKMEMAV
Procedure: The catalytic activity of TS was determined by measuring the release of [31] from [5-3H]dUMP (ViTrax, VT122) resulting from the conversion of dUMP to dTMP as previously described12,33. […] Reactions were performed in 50 mM KH2PO4 (Sigma Aldrich, P0662) at pH 7.2 using 2 μg of purified human TS. Reactions were performed in a final volume of 200 μL with 100 mM β-mercaptoethanol (Sigma Aldrich, M7522), 40 μM dUMP (Sigma Aldrich, D3876), 100 μM 5,10-mTHF, and the [5-3H]dUMP tracer (ViTrax, VT122) accounting for 0.06% of the final dUMP concentration in the reaction. […] Reactions were initiated by the addition of the dUMP substrate and 5,10-mTHF cofactor, then incubated at 37° C. for 30 minutes. […] Reactions were terminated by the addition of 100 μL of ice-cold 20% trichloroacetic acid (Sigma Aldrich, T6399), then excess [5-31-]dUMP was removed by the addition of 200 μL of an albumin-coated activated charcoal solution. The albumin-coated activated charcoal solution was prepared by mixing 10 g of acid-washed activated dextran coated charcoal (Sigma Aldrich, C6241) with 2.5 g of bovine albumin (Sigma Aldrich, A1933) in 100 mL of H2O. The suspension was incubated at room temperature for 30 minutes and then centrifuged for 30 minutes at 10,000×g. […] For all experiments, positive control reactions were performed with no drug representing 100% TS activity, and negative control reactions were performed with no TS enzyme or no 5,10-mTHF substrate representing 0% TS activity. All assays were performed in biological duplicate and technical duplicate. Results were analyzed using GraphPad Prism 8.

[2] = tested on: CM cells; assay: Cell viability (MTS) assay, CM; format: cell-based; settings: 72 hour drug incubation (FIG. 1C)
[3] = tested on: PANC-1 cells; assay: Cell viability (MTS) assay, PANC-1; format: cell-based; settings: Homo sapiens; PANC-1, 72 hour drug incubation (FIG. 1C)
Procedure: To prepare lysates, 0.5×10^6 PA NC-1 cells were seeded in 100 mm dishes in 10 ml DMEM High glucose and 24 hours later, 5-FU (Sigma) or 19-S were added at the specified concentrations. Cells were harvested after 72 hours and cell pellets were stored at −80° C. For GI50 determination, 3000 MIA PaCa-2 cells. […] After 72 hours, cell viability was assessed by reduction of MTS ((3-4,5-dimethylthiazol-2-yl)-5-(3-carboxymethoxyphenol)-2-(4-sulfophenyl)-2H-tetrazolium) using Cell Titer 96 R Aqueous One Solution Cell Proliferation Assay Kit (Promega), following manufacturer's recommendations. Chemiluminescent output (integration time 1000 ms) was measured on a SpectraMax M3® (Molecular devices). Data were normalized to max/minutes and plotted in GraphPad Prism for GI50 determination. Chemical synthesis details, including characterization of each compound, can be found in the supporting information document associated with this publication.

[4] = tested on: Luc-PANC-1 xenograft tumors; assay: Luc-PANC-1 subcutaneous xenograft tumor model; format: in vivo, NSG mice; settings: for median survival: control 54 days
Procedure: (§1) Luc-PANC-1 (5×106) and Luc-CM (0.5×106) cells were resuspended in 200 ul of PBS and injected subcutaneously (SQ) or intraperitonially (IP) to 6-8-week-old NSG mice respectively. Tumor bearing mice were imaged using Xenogen IVIS® Lumina Bioluminescence Imaging System (Perkin Elmer) every week after cell injection. At 4 weeks, animals were randomized based on slope of luciferase signal and treatment was initiated. […] For all animals body weight was recorded weekly and Luc-PANC-1 tumor volume was measured weekly with a caliper. For scheduled sacrifice experiments, animals were euthanized after 4 weeks of treatment. […] Harvested tumors were excised and weighted, and fixed in alcoholic formalin (67.5% Ethanol, 10% Formaldehyde 37%, 22.5% water) for pathology analysis. Tumor volume was calculated as [volume=0.52 (length×width2)].
(§2) From this stock, the exact volume needed for daily in vivo delivery was then formulated into 95% corn oil (Mazola) at 2 different concentrations: 1.25 mg/mi (formulation 1) and 3.125 mg/ml (formulation 2). To determine the volume of solution administered to the mice, 200 μl (maximum volume to be delivered in mice via IP or oral gavage) was divided by 25 g of mouse body weight. Therefore, 8 μl of formulation 1 or 2 multiplied by the weight of the mice were used to reach a dose of 10 or 25 mg/kg of body weight, respectively.
(§3) Prior to bioluminescence imaging the region where tumors were located was shaved. Mice were then anesthetized with 2.5% isoflurane in 02 then administered the D-luciferin substrate (150 mg/kg in PBS) by IP injection. Following the injection of the D-luciferin substrate mice were imaged using the Xenogen IVIS® Lumina Bioluminescence Imaging System (Perkin Elmer). The peak of luciferase photon flux was recorded 6 minutes after injection of the D-luciferin substrate. The total photon flux was analyzed and restricted to tumor ROI (region of interest) using Living Image v2.60.1 software (Imaging Systems).

[5] = tested on: Luc-CM disseminated tumors; assay: Luc-CM disseminated xenograft tumor model; format: in vivo, NSG mice
Procedure: as §1, §2, §3

CCc1nc(N)nc(N)c1-c1ccc(N(C)Cc2ccccc2)c([N+](=O)[O-])c1 [Compound 19-S]
inhibition of TS catalytic activity, 19-S series library screen ([1]; 250 uM (FIG. 4A)): inhibited TS activity | TS inhibition at decreasing drug concentrations ([1]; compared with Pem and MTX controls (FIG. 4C)): greater TS inhibition than both MTX and Pen; also recorded: both strong TS and DHFR inhibition | TS activity (conversion of dUMP) ([1]; drug 250 μM, 10 μg/mL bacterially expressed TS protein (FIG. 1B)): comparable TS inhibition as seen with the 5-FU metabolite FdUrd | GI50 [2]: 0.095 µM | GI50 [3]: 8.35 µM | median survival ([4]; 10 mg/kg PO until survival endpoint): 68 days | body weight ([4]; 25 mg/kg IP, 4 cycles, vs vehicle): no significant deviations | final tumor mass ([4]; 25 mg/kg IP, 4 cycles, p=0.0029 vs vehicle): significantly reduced | tumor progression (bioluminescence photon flux, tumor volume) ([4]; 25 mg/kg IP, 5 days on/2 days rest, 4 cycles, p=0.0023 flux, p<0.0001 volume vs vehicle): inhibited tumor progression | median survival ([4]; 25 mg/kg PO until survival endpoint): 84 days | adverse effects / body weight ([4]; 25 mg/kg oral gavage, 4 cycles): did not show adverse effects or declines in body weight | tumor progression (photon flux, tumor volume, excised tumor mass) ([4]; 25 mg/kg oral gavage, 4 cycles (FIGS. 7A-7H)): inhibited tumor progression | survival compared to vehicle control ([4]; 10 or 25 mg/kg PO (either dose), Kaplan-Meier): statistically significant (p=0.0027) prolonged survival | total flux (bioluminescence) ([4]; 10 or 25 mg/kg PO, at 6 weeks after cell injection, vs vehicle): significant reduction of total flux | tumor volume ([4]; 10 or 25 mg/kg PO, p=0.0079, maintained till endpoint): significant inhibition of tumor volume | body weight ([4]; 10 or 25 mg/kg PO, survival study, vs vehicle): no significant differences | body weight and behavior ([5]; 25 mg/kg IP, 3 cycles): did not show significant deviations in body weight or display adverse behavior | tumor progression (abdominal bioluminescence photon flux) ([5]; 25 mg/kg IP, 3 cycles, p=0.0032 vs vehicle): efficiently inhibited tumor progression | body weight ([5]; 25 mg/kg oral gavage): no significant deviations in body weight
